MIC data for 3 compounds are collected here from publication PMC12728655, “Engineering an Artificial Myxopyronin Derivative with Enhanced Metabolic Stability via Mutasynthesis” (JACS Au, 2025).

Each structure is given as a SMILES string. Values after ≈ are worked out from the molar mass of the structure shown. Bounds are passed on as bounds.

The test system of this assay is Rif^R-M. tuberculosis H37Rv. Kind of assay: microbe, parasite or virus in culture. The format is cell-based. The settings on record: Mycobacterium tuberculosis.
`COC(=O)N/C=C/CC[C@@H](C)c1cc(O)c(C(=O)/C(C)=C/C=C(\C)CCC(F)(F)F)c(=O)o1` [MYX (8)] had an MIC of 1 µg/mL (≈ 2.12 µM).
With `CCC/C(C)=C/C=C(\C)C(=O)c1c(O)cc([C@H](C)CC/C=C/NC(=O)OC)oc1=O` [MYX A (1), myxopyronins A] the figure was 2 to 4 µg/mL (≈ 4.79 to 9.58 µM); with `CO[C@H]1/C=C/O[C@@]2(C)Oc3c(C)c(O)c4c(O)c(c(/C=N/N5CCN(C)CC5)c(O)c4c3C2=O)NC(=O)/C(C)=C\C=C\[C@H](C)[C@H](O)[C@@H](C)[C@@H](O)[C@@H](C)[C@H](OC(C)=O)[C@@H]1C` [rifampin], greater than 64 µg/mL.
